Assay results taken from paper PMC9666501, “Screening for effective cell-penetrating peptides with minimal impact on epithelial cells and gut commensals in vitro” (Frontiers in Pharmacology, 2022).
“Also recorded” adds a separate entry of the source. No end group written: not given here.

Legend:
[1] = tested on: Clostridium bolteae DSM 29485; experiment: Broth microdilution antimicrobial assay; type: cell-based; conditions: microbroth dilution in mGAM, anaerobic, 37 °C, 24 h, OD600, CPP 0.01-100 µM
Procedure: (§1) Gut commensal microbial strains used in this study (Table 2) were purchased from […] (ATCC) and DSMZ, Germany. The growth and screening experiments were performed in modified Gifu Anaerobic Medium (mGAM) (HyServe GmbH and Co.) as all the strains could grow well in this media. mGAM was pre-reduced for a minimum of 1 day in the anaerobic chamber (Coy laboratory products Inc.) before use.
(§2) The antimicrobial effects of CPPs were determined by performing microbroth dilution method. The overnight cultures of the strains were diluted 100-fold in mGAM broth and 100 µL of the diluted cultured were distributed in the 96-well microplate. Next, 100 µL of CPPs in their respective concentrations were added to respective wells. Plates were incubated aerobically (Escherichia coli Nissle, Escherichia coli K12, and Saccharomyces boulardii) or anaerobically (rest of the strains) at 37 °C for 24 h with or without shaking, respectively. Reading of each plate was performed by measuring the optical density (OD) at 600 nm in a microplate reader (Synergy™ H1 BioTek). The final absorbance values were normalized and represented as values between 0 and 1 as a heat map, where 0 being full inhibition and 1 being no inhibition. The MIC was determined as the minimum concentration of the CPPs at which no significant growth of the strain was observed as compared to medium only (blank).

[2] = tested on: Latilactobacillus sakei ATCC 15521; experiment: Broth microdilution antimicrobial assay; type: cell-based; conditions: microbroth dilution in mGAM, anaerobic, 37 °C, 24 h, OD600, CPP 0.01-100 µM
Procedure: as §1, §2

[3] = tested on: Bifidobacterium longum ATCC 15697; experiment: Broth microdilution antimicrobial assay; type: cell-based; conditions: microbroth dilution in mGAM, anaerobic, 37 °C, 24 h, OD600, CPP 0.01-100 µM
Procedure: as §1, §2

Caco-2 cells [4] = type: cell-based; conditions: CPP 1, 5, 10, 50, 100 µM in DMEM, 1 h treatment (legend; method says 2 h), 37°C, Incucyte imaging, n = 2
Procedure: Caco-2 cells were seeded (6 × 10^3 cells/well) in Corning™ Costar™ 96-Well, Cell Culture-Treated, Flat-Bottom Microplate and grown at 37°C with 5% CO2 until reaching confluence. […] Fluorescence was measured with microplate reader Synergy™ H1 BioTek; (excitation wavelength: 560 nm, emission wavelength: 590 nm) and a curve of Relative Fluorescence Units (RFU) against different concentrations of CPPs was plotted.
[…] The cells were then imaged using the Incucyte® Live-Cell analysis instrument. Cytotox Red dye dilution: The dye was diluted to a stock concentration of 100 µM in PBS. This was further diluted in full media to yield a final concentration of 250 nM before adding to the cells.

Caco-2 monolayers [5] = experiment: FITC-dextran translocation assay; type: cell-based, human; conditions: for Paracellular permeability of FITC-dextran (Papp A-B): Caco-2 monolayers 21 days, each CPP at a concentration without cytotoxicity, apical, 1 h, 37 °C, pH 7.4, then 1 mg/ml FITC-dextran 4 for 30 min, fluorescence, n = 3; for Paracellular permeability (TEER and FITC-dextran assays collectively) / FITC-dextran translocation: Caco-2 monolayers; for Paracellular permeability (TEER and FITC-dextran assays collectively): in the concentrations tested; for FITC-dextran translocation: CPP 100 µM
Procedure: (§3) For Fluorescein Isothiocyanate (FITC)-Dextran permeability experiments, Caco-2 monolayers differentiated for 21 days were transferred to 12-well plates containing 1.5 ml phenol red free DMEM media (pH 7.4) in the basal compartments. For the treatment, medium in the apical compartment was replaced by 0.5 ml phenol red free DMEM medium containing different concentrations of CPPs, and the plates were incubated at 37 °C for 1 h. Post treatment, inserts were transferred to a new 12-well plate containing 1.5 ml fresh phenol red free DMEM and the apical medium was replaced by medium containing 1 mg/ml FITC-dextran 4 (Sigma-Aldrich). The incubation with the permeability marker lasted for 30 min. Samples were collected from the basolateral compartments post incubation and fluorescence was measured using multi-well fluorescent plate reader (Synergy; excitation wavelength: 490 nm, emission wavelength: 520 nm). The concentration of FITC-dextran in the samples was calculated by comparing the relative fluorescence values to the FITC-dextran standard curve. The apparent permeability coefficient (Papp, cm/s) was calculated according to Eq. 1. Papp=dQ/dt×1/(A×C0), (1) Where dQ/dt is the drug permeation rate (μg/s); a is the surface area of the inserts (cell monolayer) (cm^2); and C0 is the initial concentration at the apical side (μg/ml).

Caco-2 cells [6] = experiment: AlamarBlue cell viability assay; type: cell-based, human; conditions: for Cell toxicity and viability: CPP 50 µM, Cytotox Red and AlamarBlue assays
Procedure: Caco-2 cells were seeded (6 × 10^3 cells/well) in Corning™ Costar™ 96-Well, Cell Culture-Treated, Flat-Bottom Microplate and grown at 37°C with 5% CO2 until reaching confluence. For alamarBlue cell viability staining, cells were exposed to treatments (DMEM + AlamarBlue (10 µL) + CPPs) at different concentrations and incubated for 2 h at 37°C with 5% CO2. Fluorescence was measured with microplate reader Synergy™ H1 BioTek; (excitation wavelength: 560 nm, emission wavelength: 590 nm) and a curve of Relative Fluorescence Units (RFU) against different concentrations of CPPs was plotted.

Caco-2 monolayers [7] = experiment: Transepithelial electrical resistance (TEER) of Caco-2 monolayers; type: cell-based, human; conditions: for Change in TEER values after 1 h treatment with CPPs: Caco-2 monolayers differentiated 21 days, each CPP at a concentration without cytotoxicity, 37 °C, n = 3, p < 0.01 vs no treatment; for Reduction in TEER: Caco-2 monolayers, CPP 100 µM
Procedure: Transepithelial electrical resistance (TEER) represents the barrier integrity and permeability of the Caco-2 monolayers. To measure TEER, cells were seeded and grown on 12-well cell culture inserts ([…], 1.1 cm, polyethylene terephthalate membrane, cellQART) for a period of 21 days. TEER was measured using Millicell® ERS-2 Voltohmeter (MERS00002), combined with a STX-04 electrode. Final TEER values were expressed relative to the surface area of the inserts (ΩTotal - ΩInsert X cm^2). TEER values were monitored every day from day 14 until day 21, before, and after permeability experiments. On day 21 of differentiation, TEER values of the monolayers were 600 ± 50 Ω X cm^2 (mean ± SD; n = 48).
as §3

Saccharomyces cerevisiae = tested on: Saccharomyces cerevisiae; parameters: method as in Palm et al in 2006; conditions: ref Palm et al in 2006; cited from earlier work
Caco-2 monolayers [8] = conditions: cited from earlier work
Procedure: (§4) In the present work we systematically screened for effective CPPs that promote intestinal permeation through paracellular route and have negligible or no harmful effects against human epithelial cells and gut microbial strains. […] The results from the cytotoxicity and cell viability assays were in concordance except for RRL helix and PN159 at 5 µM. This minor difference most likely has to do with the sensitivity of the assay. The reducing capacity of the cells (as measured by AlamarBlue) is not the same as membrane integrity (as measured by Cytotoxic Red).

[9] = tested on: Escherichia coli Nissle 1917 (Mutaflor); experiment: Broth microdilution antimicrobial assay; type: cell-based; conditions: microbroth dilution in mGAM, aerobic with shaking, 37 °C, 24 h, OD600, CPP 0.01-100 µM
Procedure: as §1, §2

[10] = tested on: Bifidobacterium adolescentis DSM 20083; experiment: Broth microdilution antimicrobial assay; type: cell-based; conditions: microbroth dilution in mGAM, anaerobic, 37 °C, 24 h, OD600, CPP 0.01-100 µM
Procedure: as §1, §2

[11] = tested on: 10 commensal gut microbial strains; experiment: Broth microdilution antimicrobial assay, panel summary; type: cell-based; conditions: range over the strains that were totally inhibited; mGAM, 37 °C, 24 h
Procedure: as §1, §2

[12] = rats, without damaging the epithelial barrier integrity, ref Kamei et al., 2008, Morishita et al., Bocsik et al., 2019; cited from earlier work
Procedure: as §4

Sequence | Minimum inhibitory concentration (MIC) [1] [µM] | Minimum inhibitory concentration (MIC) [2] [µM] | Minimum inhibitory concentration (MIC) [3] [µM] | Cytotoxicity (Cytotox Red dye staining, dead cells) (Caco-2 cells [4]) | Paracellular permeability of FITC-dextran (Papp A-B) (Caco-2 monolayers [5]) | Paracellular permeability (TEER and FITC-dextran assays collectively) (Caco-2 monolayers [5]) | other results
KWFKIQMQIRRWKNKR [Penetramax] | 100 | 100 | 10 | significant toxicity only at the highest concentration tested (100 µM) | highest paracellular permeability |  | Cell toxicity and viability (Caco-2 cells [6]): without having significant effects on cell toxicity and viability
LLIILRRRIRKQAHAHSK [pVEC, Protein derived cell-penetrating peptide] |  |  |  |  |  | did not exhibit paracellular permeability | Change in TEER values after 1 h treatment with CPPs (Caco-2 monolayers [7]): significant reduction in TEER values; Concentration without inhibition of growth (Saccharomyces cerevisiae): > 25 µM
RQIKIWFQNRRMKWKK [Penetratin, Protein derived cell-penetrating peptide] |  |  |  |  |  | did not exhibit paracellular permeability | Change in TEER values after 1 h treatment with CPPs (Caco-2 monolayers [7]): significant reduction in TEER values; Permeabilizing effect in the Caco-2 monolayer setup (Caco-2 monolayers [5]): no permeabilizing effect; Paracellular permeability of Caco-2 monolayers (Caco-2 monolayers [8]): did not improve paracellular permeability; Concentration without inhibition of growth (Saccharomyces cerevisiae): > 25 µM
RRLRRLLRRLRRLLRRLR [RRL helix] | 10 | 50 | 5 | toxic at 5 µM; also recorded: Toxicity from 5 μM | highest paracellular permeability |  | Minimum inhibitory concentration (MIC) [9]: 50 µM; Minimum inhibitory concentration (MIC) [10]: 100 µM; MICs over the totally inhibited strains of the panel [11]: 5 to 100 µM; Cell viability (AlamarBlue, % live cells vs control) (Caco-2 cells [6]; CPP 5 µM, 1 h treatment (legend; method says 2 h), 37°C, fluorescence 560/590 nm, n = 3): no significant toxic effect
RRRRRRRR [R8, Synthetic oligoarginine cell-penetrating peptide] |  |  |  |  |  | did not exhibit paracellular permeability | Reduction in TEER (Caco-2 monolayers [7]): did not observe reduction in TEER; FITC-dextran translocation (Caco-2 monolayers [5]): did not observe reduction in TEER or elevated FITC-dextran translocation; Intestinal absorption of therapeutic peptides [12]: effective tools at improving intestinal absorption of therapeutic peptides
RRRRRRRRR [R9, Synthetic oligoarginine cell-penetrating peptide] |  |  |  |  |  | did not exhibit paracellular permeability | Reduction in TEER (Caco-2 monolayers [7]): did not observe reduction in TEER; FITC-dextran translocation (Caco-2 monolayers [5]): did not observe reduction in TEER or elevated FITC-dextran translocation; Intestinal absorption of therapeutic peptides [12]: effective tools at improving intestinal absorption of therapeutic peptides
RWFKIQMQIRRWKNKK [Shuffle] | 50 | 100 | 10 | significant toxicity only at the highest concentration tested (100 µM) | highest paracellular permeability |  | Cell toxicity and viability (Caco-2 cells [6]): without having significant effects on cell toxicity and viability
YGRKKRRQRRR [Tat] |  |  |  |  |  | did not exhibit paracellular permeability | Permeabilizing effect in the Caco-2 monolayer setup (Caco-2 monolayers [5]): no permeabilizing effect
